Data on eleven molecules can be found in ChEMBL document CHEMBL3813594, “Design and structure-activity relationships of novel inhibitors of human rhinovirus 3C protease” (Bioorg Med Chem Lett, 2016).

The structures appear in SMILES notation.

The EC50 is the concentration giving half of the maximal effect.

Test [1] can be described thus: Antiviral activity against human rhinovirus 17 assessed as reduction in viral infection in human HeLa H1 cells pretreated for 1 to 2 hrs with virus followed by cell addition measured after 48 hrs by Celltiter-Glo reagent based assay. It is filed as functional, Human rhinovirus B17.
Test [2] relates to rhinovirus A2. Put plainly: Antiviral activity against human rhinovirus 2 assessed as reduction in viral infection in human HeLa H1 cells pretreated for 1 to 2 hrs with virus followed by cell addition measured after 48 hrs by Celltiter-Glo reagent based assay. Type of test: functional, organism-based.
Test [3] has as its system rhinovirus A16. Put plainly: Antiviral activity against human rhinovirus 16 assessed as reduction in viral infection in human HeLa H1 cells pretreated for 1 to 2 hrs with virus followed by cell addition measured after 48 hrs by Celltiter-Glo reagent based assay. It is filed as functional, organism-based.
Test [4] deals with rhinovirus B14. Put plainly: Antiviral activity against human rhinovirus 14 assessed as reduction in viral infection in human HeLa H1 cells pretreated for 1 to 2 hrs with virus followed by cell addition measured after 48 hrs by Celltiter-Glo reagent based assay. Type of test: functional, organism-based. Conditions: Rhinovirus B. In general terms: In ATP-based viability assays light output follows the ATP content of the culture.

Test [5] relates to rhinovirus A41. Put plainly: Antiviral activity against human rhinovirus 41 assessed as reduction in viral infection in human HeLa H1 cells pretreated for 1 to 2 hrs with virus followed by cell addition measured after 48 hrs by Celltiter-Glo reagent based assay. Conditions: Rhinovirus A. It is filed as functional, organism-based.
The nature of test [6]: Antiviral activity against human rhinovirus 8 assessed as reduction in viral infection in human HeLa H1 cells pretreated for 1 to 2 hrs with virus followed by cell addition measured after 48 hrs by Celltiter-Glo reagent based assay. Type of test: functional, Human rhinovirus A8. Conditions: Rhinovirus A.
Test [7] concerns rhinovirus A25. Put plainly: Antiviral activity against human rhinovirus 25 assessed as reduction in viral infection in human HeLa H1 cells pretreated for 1 to 2 hrs with virus followed by cell addition measured after 48 hrs by Celltiter-Glo reagent based assay. Type of test: functional, organism-based. As to conditions: Rhinovirus A.
The nature of test [8]: Antiviral activity against human rhinovirus 7 assessed as reduction in viral infection in human HeLa H1 cells pretreated for 1 to 2 hrs with virus followed by cell addition measured after 48 hrs by Celltiter-Glo reagent based assay. Type of test: functional, Human rhinovirus A7. As to conditions: Rhinovirus A.
For test [9], the system named is rhinovirus A85. Briefly: Antiviral activity against human rhinovirus 85 assessed as reduction in viral infection in human HeLa H1 cells pretreated for 1 to 2 hrs with virus followed by cell addition measured after 48 hrs by Celltiter-Glo reagent based assay. It is filed as functional, organism-based. As to conditions: Rhinovirus A.
Test [10] is described as follows: Antiviral activity against human rhinovirus 100 assessed as reduction in viral infection in human HeLa H1 cells pretreated for 1 to 2 hrs with virus followed by cell addition measured after 48 hrs by Celltiter-Glo reagent based assay. As to conditions: Rhinovirus A. It is filed as functional, Human rhinovirus A100.
Test [11] has as its system rhinovirus A2. Put plainly: Antiviral activity against human rhinovirus 2 assessed as reduction in viral infection in human HeLa H1 cells after 2 to 5 days by XTT reduction assay. Type of test: functional, organism-based. Conditions: Rhinovirus A. (In general: Tetrazolium assays rely on reduction of a dye to a coloured formazan, in cell work by metabolically active cells.)

Test [12] can be described thus: Antiviral activity against human rhinovirus 17 assessed as reduction in viral infection in human HeLa H1 cells after 2 to 5 days by XTT reduction assay. Type of test: functional, cell-based, Human rhinovirus B17. Conditions: Rhinovirus B.
Test [13] concerns rhinovirus A16. Put plainly: Antiviral activity against human rhinovirus 16 assessed as reduction in viral infection in human HeLa H1 cells after 2 to 5 days by XTT reduction assay. It is filed as functional, organism-based. Conditions: Rhinovirus A.

On to `CCOC(=O)/C=C/[C@H](C[C@@H]1CCNC1=O)NC(=O)[C@@H]1C[C@@H](CC#N)CN1C(=O)[C@@H](NC(=O)c1cc(C)on1)C(C)C`, for which the EC50 in [1] (Rhinovirus B, HeLa H1) came out at 500 nM; in [2] (Rhinovirus A, HeLa H1) it was 430 nM; in test [3] (Rhinovirus A, HeLa H1), 199 nM.
As to `CCOC(=O)/C=C/[C@H](C[C@@H]1CCNC1=O)NC(=O)[C@@H]1CCCN1C(=O)[C@@H](NC(=O)c1cc(C)on1)C(C)C`, the EC50 came out at 230 nM in [1] (Rhinovirus B, HeLa H1); 470 nM in test [4]; 1450 nM in test [5]; 590 nM in test [6]; 1390 nM in [2] (Rhinovirus A, HeLa H1); 1890 nM in test [7]. Moreover, the 50% effective concentration (EC50) in test [8] is 1300 nM; in test [3] (Rhinovirus A, HeLa H1), 400 nM; in test [9], 4200 nM; in test [10], 1800 nM.
With `CCOC(=O)/C=C/[C@H](C[C@@H]1CCNC1=O)NC(=O)[C@@H](CC(=O)[C@@H](NC(=O)c1cc(C)on1)C(C)C)Cc1ccc(F)cc1` [RUPINTRIVIR], the EC50 in test [11] is 12 nM; in [12], 14 nM; in test [13] it was 14 nM.
As to `CCOC(=O)/C=C/[C@H](C[C@@H]1CCNC1=O)NC(=O)[C@@H]1CC[C@@H](c2ccccc2)N1C(=O)[C@@H](NC(=O)c1cc(C)on1)C(C)C`, the 50% effective concentration (EC50) in test [1] (Rhinovirus B, HeLa H1) turned out to be 150 nM; in test [2] (Rhinovirus A, HeLa H1), 1900 nM; in test [3] (Rhinovirus A, HeLa H1) it was 260 nM.
Regarding `CCOC(=O)/C=C/[C@H](C[C@@H]1CCNC1=O)NC(=O)[C@@H]1[C@@H](c2ccccc2)CN1C(=O)[C@@H](NC(=O)c1cc(C)on1)C(C)C` (stereo in doubt; 10), the EC50 in [1] (hela h1) came out at 90 nM; in [4], 91 nM; in test [5], 530 nM; in test [6], 170 nM; in test [2] (hela h1), 300 nM; in [7], 100 nM. Besides, the 50% effective concentration (EC50) stood at 420 nM in [8], 300 nM in [3] (hela h1), 1140 nM in [9] and 470 nM in test [10].
For the molecule `CCOC(=O)/C=C/[C@H](C[C@@H]1CCNC1=O)NC(=O)[C@@H]1[C@@H](c2ccccc2)CN1C(=O)[C@@H](NC(=O)c1cc(C)on1)C(C)C` (stereo in doubt; 11), the EC50 in [1] (hela h1), in test [2] (hela h1) and in test [3] (hela h1) was over 50000 nM throughout.
`CCOC(=O)/C=C/[C@H](C[C@@H]1CCNC1=O)NC(=O)[C@@H]1C[C@@H](C2CCCCC2)CN1C(=O)[C@@H](NC(=O)c1cc(C)on1)C(C)C`: the concentration giving a half-maximal response (EC50) is 7 nM in test [1] (Rhinovirus B, HeLa H1); 11 nM in test [4]; 90 nM in test [5]; 22 nM in [6]; 46 nM in test [2] (Rhinovirus A, HeLa H1); 9 nM in [7]. In addition, the EC50 was 47 nM in [8]; 15 nM in [3] (Rhinovirus A, HeLa H1); 94 nM in test [9]; 80 nM in [10].
Consider `CCOC(=O)/C=C/[C@H](C[C@@H]1CCNC1=O)NC(=O)[C@@H]1C[C@@H](Cc2ccccc2)CN1C(=O)[C@@H](NC(=O)c1cc(C)on1)C(C)C`, for which the EC50 turned out to be 190 nM in test [1] (Rhinovirus B, HeLa H1); 300 nM in test [2] (Rhinovirus A, HeLa H1); 47 nM in test [3] (Rhinovirus A, HeLa H1).
Regarding `CCOC(=O)/C=C/[C@H](C[C@@H]1CCNC1=O)NC(=O)[C@@H]1[C@@H](c2ccccc2)CCN1C(=O)[C@@H](NC(=O)c1cc(C)on1)C(C)C`, the 50% effective concentration (EC50) came to 700 nM in [1] (Rhinovirus B, HeLa H1); 2500 nM in [4]; 4500 nM in test [5]; 3500 nM in test [6]; 8400 nM in [2] (Rhinovirus A, HeLa H1); 4500 nM in test [7]. Also, the concentration giving a half-maximal response (EC50) turned out to be 8300 nM in [8]; 3000 nM in test [3] (Rhinovirus A, HeLa H1); 9300 nM in [9]; 6500 nM in test [10].
For the molecule `CCOC(=O)/C=C/[C@H](C[C@@H]1CCNC1=O)NC(=O)[C@@H]1C[C@@H](c2ccccc2)CN1C(=O)[C@@H](NC(=O)c1cc(C)on1)C(C)C`, the EC50 in [1] (Rhinovirus B, HeLa H1) was determined as 11 nM; in test [4], 13 nM; in test [5], 130 nM; in test [6], 37 nM; in [2] (Rhinovirus A, HeLa H1), 140 nM; in test [7], 19 nM. For the same molecule, the 50% effective concentration (EC50) in test [8] was 81 nM; in [3] (Rhinovirus A, HeLa H1), 24 nM; in [9] it was 250 nM; in test [10] it was 110 nM.
In the case of `CCOC(=O)/C=C/[C@H](C[C@@H]1CCNC1=O)NC(=O)[C@@H]1C[C@@H](Oc2ccccc2)CN1C(=O)[C@@H](NC(=O)c1cc(C)on1)C(C)C`, the 50% effective concentration (EC50) in [1] (Rhinovirus B, HeLa H1) came to 260 nM; in test [2] (Rhinovirus A, HeLa H1), 270 nM; in test [3] (Rhinovirus A, HeLa H1), 59 nM.
